{"source": "patent US20030104487A1", "about": "“Neuropeptide receptor and uses thereof” (priority 2001, published 2003)", "key": {"[1]": {"molecular_target": "T1, EBI2 (Homo sapiens, UniProt P32249)", "T1 sequence (P32249 whole entry)": "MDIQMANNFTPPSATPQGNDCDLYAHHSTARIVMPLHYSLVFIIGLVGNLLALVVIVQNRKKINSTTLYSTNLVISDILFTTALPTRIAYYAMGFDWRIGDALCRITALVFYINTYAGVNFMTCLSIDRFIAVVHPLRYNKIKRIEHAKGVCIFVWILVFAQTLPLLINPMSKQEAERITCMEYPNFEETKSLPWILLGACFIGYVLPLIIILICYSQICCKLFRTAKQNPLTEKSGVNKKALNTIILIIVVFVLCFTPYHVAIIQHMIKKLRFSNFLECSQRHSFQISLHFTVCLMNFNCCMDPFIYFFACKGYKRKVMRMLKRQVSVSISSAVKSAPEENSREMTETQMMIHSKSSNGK", "assay": "Response of EBI2 to CRF-family neuropeptides (test not specified)", "details": "general statement, no test named"}, "[2]": {"molecular_target": "T1, EBI2", "assay": "Functional assay measuring intracellular calcium mobilisation (FLIPR)", "format": "cell-based", "details": "EBI2-expressing cells compared to mock-transfected cells; FIG. 1", "method": "5×10^6 cells of a suitable host cell line, chosen to express a low number of endogenous receptors (e.g. HEK293 or CHO-K1) and engineered to stably express certain Gα proteins (e.g. mouse Gα15 (Wilkie, T. M. et al (1991) Proc. Natl. Acad. Sci. 88, 10049-10053), a chimeric Gqi5/Gqo5 α-subunit, or human Gα16 (Amatruda, TT 3rd et al (1991) Proc. Natl. Acad. Sci. 88, 5587-5591)), were transiently transfected with 7.5 μg of cDNA encoding EBI2 in a suitable mammalian cell expression vector, or vector alone, using Lipofectamine Plus® reagent (Gibco BRL) as per the manufacturer's protocol. […]\nFluorescence Imaging Plate Reader (FLIPR®) technology was employed as a means to detect activation of EBI2 by various potential GPCR agonists.\nCells were transfected as described in Example 3. […] The FLIPR® processing involved reading the fluorescence for all samples for 2 minutes; during this time the fluorescence baseline was determined […]. The desired amount of compounds (i.e. potential GPCR agonists) was then automatically transferred to the wells and the fluorescence was continuously monitored for the remainder of the time. […]\nCompounds capable of acting as agonists for the receptor were identified by them causing a transient rise in fluorescence, and therefore in intracellular calcium, in the cells."}, "[3]": {"molecular_target": "T1, EBI2", "assay": "β-Arrestin assay (GFP-β-arrestin clustering/internalisation)", "format": "cell-based", "design": "expressed in transfected cells; host or cells: HEK 293", "details": "HEK 293 cells transiently expressing EBI2 and GFP-β-arrestin; ligand ~500 nM, 30 minutes; confocal microscopy, FIG. 2", "excerpt": "General principle of the assay: Agonist binding to the GPCR activates G-proteins and ultimately results in second messenger cascades to elicit a physiological response. In most cases receptors occupied by agonists undergo rapid phosphorylation by GPCR Kinases (GRKs). This in turn allows β-arrestin to bind to the GPCR preventing any further interaction between the GPCR and G-protein. Internalisation of the GPCR via clathrin coated pits follows as a result of arrestin-clathrin interactions (Krupnick, J. G. and Benovic, J. L. (1998) Annual Review of Pharmacological Toxicology, 38, 289-319). By employing fusion constructs of green fluorescent protein (GFP)-β arrestin, this receptor desensitisation can be visualised using confocal microscopy. In the absence of receptor activation in a transfected cell line, fluorescence associated with the β-arrestin-GFP is evenly distributed throughout the cytoplasm. Upon receptor activation by an agonist, cytosolic β-arrestin-GFP translocates to the cell surface reflecting the interaction with the activated receptor (Evans et al. 2001). […]\nThe receptor EBI2 and GFP-β-arrestin mammalian expression constructs were transiently transfected in to HEK 293 cells. […] The cells were then analysed using both confocal microscopy and the Cellomics ArrayScanII methodologies in order to identify internalisation of the ligand receptor GFP-β-arrestin complex. […]"}}}
{"compound": "CC[C@H](C)[C@H](NC(=O)[C@@H](NC(=O)[C@H](CC(=O)O)NC(=O)[C@H](CC(C)C)NC(=O)[C@H](CC(C)C)NC(=O)[C@H](CC(C)C)NC(=O)[C@H](CCCNC(=N)N)NC(=O)[C@H](CC(N)=O)NC(=O)[C@H](CC(N)=O)NC(=O)[C@H](C)NC(=O)[C@H](C)NC(=O)[C@H](CCC(N)=O)NC(=O)[C@H](CCC(N)=O)NC(=O)[C@H](CCCCN)NC(=O)[C@H](CCC(=O)O)NC(=O)[C@H](CCCCN)NC(=O)[C@H](CCC(=O)O)NC(=O)[C@H](CCC(N)=O)NC(=O)[C@H](CCCCN)NC(=O)[C@H](CCC(=O)O)NC(=O)[C@@H](NC(=O)[C@H](CCC(=O)O)NC(=O)[C@@H](NC(=O)[C@H](CCSC)NC(=O)[C@H](CCCCN)NC(=O)[C@H](CCCNC(=N)N)NC(=O)[C@H](CC(C)C)NC(=O)[C@H](CC(C)C)NC(=O)[C@H](CCC(=O)O)NC(=O)[C@H](CC(C)C)NC(=O)[C@H](CO)NC(=O)[C@H](CC(C)C)NC(=O)[C@H](CC(=O)O)NC(=O)[C@@H](NC(=O)[C@H](CO)NC(=O)[C@@H](NC(=O)[C@@H]1CCCN1C(=O)[C@@H]1CCCN1C(=O)CNC(=O)[C@@H]1CCC(=O)N1)[C@@H](C)CC)[C@@H](C)CC)[C@@H](C)CC)[C@@H](C)CC)[C@@H](C)O)C(N)=O", "note": "[sauvagine]", "values": [{"measurement": "receptor responds to the peptide", "setting": "[1]", "result": "responds"}]}
{"compound": "urotensin I", "values": [{"measurement": "fluorescence change over time (transient rise in intracellular calcium)", "setting": "[2]", "result": "response of EBI2-expressing cells to urotensin I"}, {"measurement": "receptor responds to the peptide", "setting": "[1]", "result": "responds"}, {"measurement": "clustering of GFP-β-arrestin complex on the cell surface", "setting": "[3]", "result": "Clustering of the fluorescent GFP-β-arrestin complex is clearly observed"}]}
